This is an account of results in US4179451A, “Novel hydroxy substituted 15-deoxy-5-cis-prostenoic acids and esters” (American Cyanamid Company, priority 1978, dated 1979).

The subject of assay [1] is mean arterial blood pressure. In words: Hypotensive Response (normotensive rat). Format: in vivo, Male Wistar strain rats. Particulars: intravenous 2.1 mg./kg.; anesthetized rat. The protocol: This procedure is a modification of the techniques described by Pike et al., Prostaglandins, Nobel Symposium 2, Stockholm, June, 1966; p. 165.
Male Wistar strain rats (Royal Hart Farms) averaging approximately 250 grams in weight were fastened to rat boards in a supine position by means of canvas vests and limb ties. The femoral area was infiltrated subcutaneously with lidocaine and the iliac artery and vein were exposed and cannulated. Arterial blood pressure (systolic/diastolic) was recorded using a Statham P23 Bb pressure transducer-Offner dynograph system. To obtain a stable blood pressure, the animals were anethetized before use with pentobarbital, 30 mg./kg. of body weight intravenously, and also were given hexamethoxium bitartrate, 2 mg./kg. of body weight intravenously. The test compounds were prepared by ultrasonic dispersion in a Saline-Tween 80® vehicle. A constant intravenous dose volume of 0.5 ml. was administered and test doses ranged from 0.1 to 10.0 mg./kg. of body weight.
In Table V below are recorded the percent decrease from normal of mean arterial blood pressure induced by given doses of representative compounds of this invention.

A further assay has as its system gastric acid secretion. In words: Gastric acid secretion inhibitory action (Shay rat procedure). The assay is classed as in vivo, rats (male, CFE strain).
Assay [2] has as its system bronchospasms elicited by acetylcholine. In words: Bronchodilator Activity (Konzett Assays), acetylcholine. As to conditions: Cavia porcellus; three logarithmic cumulative intravenous doses; spasmogen acetylcholine; read-out: ED50, Spasmogenic Agent Acetylcholine. Format: in vivo, guinea pigs. The protocol: (§1) The compounds of this invention are useful as bronchodilators for the treatment of asthma and chronic bronchitis. Bronchodilator activity is determined in guinea pigs against bronchospasms elicited by intravenous injections of 5-hydroxytryptamine, histamine or acetylcholine by the Konzett procedure. [See J. Lulling, P. Lievens, F. El Sayed and J. Prignot, Arzneimittel-Forschung, 18, 955 (1968).]
(§2) In Table IV which follows bronchodilator activity for representative compounds of this invention against one or more of three spasmogenic agents is expressed as an ED50 determined from the results obtained with three logarithmic cummulative intravenous doses. In this assay, these compounds of this invention provide an effect of longer duration than does natural l-PGE1 or l-PGE2.

Assay [3] concerns ulcerogenic properties of indomethacin. In words: protection against the ulcerogenic properties of indomethacin. Format: in vivo, Rats. As to conditions: indomethacin 20 mg./kg. s.c., score 0 (normal stomach) to 4, control 3.0. How it is done: The protection against the ulcerogenic properties of indomethacin was determined in the following manner. Rats were starved for 48 hours (water was given ad libitum). Indomethacin (20 mg./kg. of body weight) was administered by the subcutaneous route and one-half the dose of the test compound was administered by gavage at the same time. After three hours, the second half of the test compound was administered also by gavage. Five hours after the administration of indomethacin the animals were decapitated and the stomachs removed. The stomachs were washed with distilled water, blotted on gauze, cut along the larger curvature, and the contents rinsed with distilled water. The stomachs were spread out, pinned on a cork and visualized under magnifying glass for ulcers. The criteria for scoring of ulcers was as previously reported [Abdel-Galil et al. Brit. J. Pharmac. Chemotherapy 33:1-14 (1968)].
1--Petechial hemorrhage or pin point ulcer
3--Many ulcers, a few large
4--Many ulcers, mainly large
A difference of at least 0.7 unit between the scores for control animals (treated with indomethacin but not test compound) and animals treated with indomethacin and test compound is considered indicative of activity from the test compound. […]

Assay [4] deals with basal gastric acid secretion. In words: Inhibition of basal gastric acid secretion in the Acute Gastric Fistula Rat. The assay is classed as in vivo, Female Sprague-Dawley rats. Particulars: 1 h, intraduodenal 10 mg./kg., after 60 minutes, read-out: % Inhibition of Total Acid or Output. The protocol: Inhibition of basal gastric acid secretion can be determined by the following procedure. Female Sprague-Dawley rats weighing 140-160 grams are fastened in individual cages for 18-24 hours. The rats are then lightly anesthetized with ether and their front teeth extracted to avoid destruction of the plastic cannula. A midline incision is then made and the stomach and duodenum exposed. A flanged polyvinyl tube is inserted into the fundic portion of the stomach and secured with a purse string suture line using 4-O Mersilene. The rat is then dosed by injection of the compound into the duodenum (1.0 ml. per 100 gram body weight). After dosing, the abdominal wall and skin are closed using metal wound clips. The rat is replaced in a cage containing a longitudinal slit to allow the polyvinyl tube to hang freely. An 8 ml. plastic collecting tube is attached to the flanged cannula and hangs freely below the cage. The first 30 minute sample is discarded designating this time as zero. The collecting tube is attached again and samples removed at the end of 60 and/or 120 minutes. The hourly samples are then transferred to a 15 ml. centrifuge and centrifuged for 5-10 minutes. Total and sediment volume are then recorded with supernatent volume being used as volume of secretion. A 1 ml. or less aliquot is then removed and placed in a 50 ml. beaker containing 10 ml. of distilled water. This sample is then titrated using 0.01 N to Na H to pH 7.0 using a Beckman zeromatic pH meter. Volume, titratable acidity (meq/L) and total acid output (μeq/hour) are recorded. Percent inhibition is determined by comparison with the appropriate control. Groups of three rats are used for preliminary testing, and groups of six rats are used for dose-response evaluations. All compounds are administered in a vehicle consisting of 0.5% methocel, 0.4% tween 80, and saline at a constant volume of 1 ml./100 gram rat. Samples are dispersed by sonification. Percent inhibition is calculated on basis of concurrent vehicle control.
In Table III which follows is given the effect on total acid output after 60 minutes of a 10 mg./kg. intraduodenal dose of representative compounds of this invention.

Assay [5] has as its system bronchospasms elicited by 5-hydroxytryptamine. In words: Bronchodilator Activity (Konzett Assays), 5-hydroxytryptamine. The assay is classed as in vivo, guinea pigs. As to conditions: Cavia porcellus; three logarithmic cumulative intravenous doses; spasmogen 5-hydroxytryptamine; read-out: ED50, Spasmogenic Agent 5-hydroxytryptamine. How it is done: as §1, §2
Assay [6] deals with basal gastric acid secretion. In words: Inhibition of basal gastric acid secretion in the Acute Gastric Fistula Rat. The assay is classed as in vivo, Female Sprague-Dawley rats. Particulars: 1 h, intraduodenal 2.5 mg./kg., after 60 minutes, read-out: % Inhibition of Total Acid or Output.
The subject of assay [7] is bronchospasms elicited by histamine. In words: Bronchodilator Activity (Konzett Assays), histamine. Particulars: Cavia porcellus; three logarithmic cumulative intravenous doses; spasmogen histamine; read-out: ED50, Spasmogenic Agent histamine. The assay is classed as in vivo, guinea pigs. How it is done: as §1, §2

Each structure is given as a SMILES string.

Usually ED50 stands for the dose at which the effect has come halfway, by size or by number of responders. In the case of `CCCCC(O)C/C=C/[C@H]1[C@H](O)CC(=O)[C@@H]1C/C=C\CCCC(=O)O` (relative stereo) [9-oxo-11α,16-dihydroxy-5-cis; 13-trans-prostadienoic acid], the “% Decrease in Mean Arterial Blood Pressure” value in assay [1] came out at 27%. The entries for the “Percent Inhibition” value in the assay on gastric acid secretion (subcutaneous dose 0.4 mg./kg.), in the assay with gastric acid secretion (subcutaneous dose 0.8 mg./kg.) and in the assay on gastric acid secretion (subcutaneous dose 1.6 mg./kg.) were 35%, 44% and 48%, respectively. The results for the ED50 in assay [2], in assay [5] and in assay [7] were 17.3 µg/kg, 3.6 µg/kg and 2.1 µg/kg, respectively. Moreover, the Score treated in assay [3] (total oral dose 0.39 mg./kg. of body weight) is recorded as 2.0; in assay [3] (total oral dose 0.78 mg./kg. of body weight), 1.0. Besides, in assay [4], the inhibition in vivo at 10 mg/kg was found to be 69%. Besides, in assay [6], the inhibition in vivo at 2.5 mg/kg was 42%.
